Assays:
bladder wall = test: Bladder hypertrophy (H&E) and collagen content in bladder muscle (Masson's trichrome) after spinal cord injury; format: in vivo, Sprague-Dawley rats
From the text: As one indicator of bladder dysfunction, bladder hypertrophy, which was a thicker bladder wall, and changes in collagen content in the bladder muscle were identified. Specifically, a spinal cord injury […] animal model was perfused through the left ventricle, and fixed with 4% paraformaldehyde, and the bladder was extracted, and then embedded in an optimal cutting temperature (OCT) compound, and the tissue was sectioned at a 10 µm thickness using a cryostat. In order to measure the bladder wall thickness, Hematoxylene & Eosin (Abcam) staining was performed according to a manufacturer's protocol, and in order to measure the collagen content in the muscle, Masson's trichrome (Sigma-Aldrich) staining was performed.

astrocytes = test: Astrocyte activation in spinal cord of SNI model (GFAP immunohistochemistry and Western blot); format: in vivo, Sprague-Dawley rats; conditions: L4-5 spinal cord
Protocol: To be used as a peripheral nerve injury animal model, a sciatic nerve injury (SNI) model was prepared (FIG. 1C). Specifically, 200 to 220 g of male adult Sprague-Dawley rats were anesthetized by intraperitoneal injection of chloral hydrate (500 mg/kg), and then three terminal branches (tibial, common peroneal, and sural nerves) of the right sciatic nerve were approached, and the tibia nerve and the peroneal nerve were tightly ligated with 4-0 silk, and neurectomy was performed at a distal 3 mm position of the ligation site. At this time, a Sham group was a group that exposed only the sciatic nerve without damage.
The activation of astrocytes in the spinal cord, known to play an important role in the process of inducing/persisting neuropathic pain, was confirmed by immunohistochemical staining and Western blot analysis using an anti-GFAP antibody against an intermediate filament protein, Glial fibrillary acidic protein (GFAP) of astrocytes, a marker of astrocyte activation, as in Example 3-1.

JAK/STAT3 pathway = test: Signaling pathway analysis in SNI model (Western blot): JAK/STAT3; format: in vivo, Sprague-Dawley rats; conditions: 4 weeks after nerve injury
Protocol: (§1) To determine through which signaling pathway YJ102 inhibited a neuroinflammatory response, there was analyzed increased expression and activation of histone demethylase JMJD3 and expression changes of factors associated with JAK/STAT3 pathway, mTOR pathway, and TRPM7-mediated pathway, which were known as important regulatory mechanisms and epigenetic regulators mediating the neuroinflammatory response, in the tissues of the SNI animal model 4 weeks after nerve injury.

proNGF = test: NGF/proNGF expression in bladder after SCI (RT-PCR, Western blot); format: in vivo, Sprague-Dawley rats; conditions: bladder tissue after spinal cord injury
Protocol: (§2) In order to determine whether YJ102 affected the production of proNGF as a ligand of p75, the expression of proNGF in the bladder was confirmed by RT-PCR, Western blot analysis, and immunofluorescence staining. In addition, for further verification, a macrophage cell line Raw 264.7 (Korea Cell Line Bank, Seoul, Korea) was stimulated with 1 µg/ml of LPS, and the effect of YJ102 on the production of proNGF was investigated. At this time, YJ102 was dissolved in DMSO and treated 30 minutes before LPS treatment.

Raw 264.7 = test: proNGF production in LPS-stimulated macrophage cell line; format: cell-based; conditions: Raw 264.7 stimulated with 1 µg/ml of LPS; YJ102 treated 30 minutes before LPS
Protocol: as §2

Raw 264.7 cell line = test: Inflammatory factor mRNA in LPS-treated macrophage cell line (RT-PCR); format: cell-based; conditions: LPS treatment
Protocol: as §2
To confirm the effect of YJ102 on the expression of inflammatory factors in the bladder after spinal cord injury, the expression of inflammatory cytokines and chemokines, COX-2, iNOS, IL-6, IL-1β, MIP-1α, MIP-1β, MIP-2α, and Gro-α in bladder tissue was confirmed by RT-PCR analysis and Western blot analysis using the primers in Table 2 above. In addition, even in the Raw 264.7 cell line, the expression was verified by RT-PCR analysis.

JMJD3 = test: Signaling pathway analysis in SNI model (Western blot): JMJD3 expression and activation; format: in vivo, Sprague-Dawley rats; conditions: 4 weeks after nerve injury
Protocol: as §1

[1] = tested on: p75 neurotrophin receptor; test: p75 expression in urothelium after SCI (RT-PCR, Western blot); format: in vivo, Sprague-Dawley rats; conditions: urothelium after spinal cord injury (days 1 and 7)
From the text: The effect of YJ102 on urothelial cell apoptosis in bladder tissue after spinal cord injury was confirmed by TUNEL staining, and the protein levels of cleaved caspase-3 indicating caspase-3 activation, and UPIII as a urothelial marker were confirmed by Western blot analysis using p75 (Promega), cleaved caspase-3 (Cell signaling technology), and UPIII (Abcam) as primary antibodies. In addition, in order to confirm whether the mechanism of apoptosis was caused by a p75 neurotrophin receptor, which was involved in urothelial apoptosis, the expression level of p75 was confirmed by RT-PCR, Western blot analysis, and immunofluorescence staining. For RT-PCR analysis, the obtained bladder tissue sections were frozen in liquid nitrogen, and ground in a mortar and pestle to be completely lysed, and then RNA was isolated using a TRIZOL Reagent (Invitrogen) according to a manual, and 20 µl of the total mixture was prepared by using 1 µg of total RNA, and cDNA was synthesized using MMLV reverse transcriptase (Invitrogen).

mTOR pathway = test: Signaling pathway analysis in SNI model (Western blot): mTOR; format: in vivo, Sprague-Dawley rats; conditions: 4 weeks after nerve injury
Protocol: as §1

[2] = day 1 after spinal cord injury, H&E

Structure (SMILES): CCc1ccc(N(C(=O)COC)c2nc3cc(Cl)ccc3o2)cc1 [YJ102]
- collagen content in the muscle (bladder wall; after spinal cord injury, Masson's trichrome): maintained at a level almost similar to that of the normal group
- thickness of the lamina propria (bladder wall; [2]): significantly reduced
- thickness of the muscle layer (bladder wall; [2]): significantly reduced
- thickness of the urothelium layer (bladder wall; [2]): significantly reduced
- GFAP expression intensity (astrocytes): significantly decreased
- phosphorylation of JAK2 (JAK/STAT3 pathway): significantly reducing
- phosphorylation of STAT3 (JAK/STAT3 pathway): significantly reducing
- NGF mRNA expression (proNGF; RT-PCR): significantly inhibited
- proNGF production (proNGF; Western blot): significantly inhibited
- mRNA and protein expression of proNGF (Raw 264.7): significantly inhibited
- mRNA levels of IL-1β, TNF-α, IL-6, iNOS, and COX-2 (Raw 264.7 cell line): significantly reduced
- demethylation activation of H3K27Me3 (JMJD3): significantly inhibited
- expression of JMJD3 (JMJD3): significantly inhibited
- p75 expression [1]: significantly reduced
- activity of S6 (mTOR pathway): inhibiting
- activity of p70S6kinase (mTOR pathway): inhibiting
